Test results published in patent US7384757B2 (Bristol-Myers Squibb Company, priority 2004, dated 2008).

How the values were obtained:
ACC and FAS = assay: ACC/FAS coupled SPA, effect of DMSO and purification reagents; assay type: biochemical, rat; conditions: for effect on the enzyme reaction: ACC/FAS coupled SPA, FIG. 12
Description: (§1) The [^3H]-acetyl CoA mix in the final reaction was 20 μM with 0.25 μCi per assay (specific activity of 250 μCi/μmol).
Compound Dilution: Compounds were dissolved in 100% DMSO to obtain 10 mM stock solution. A serial dilution of the compounds in 100% DMSO was made first. Then the compounds were diluted 1:33.3 in buffer to obtain 10× compound solution in 3% DMSO. From this intermediate dilution, a further 10× dilution was made in the assay, resulting 0.3% final DMSO concentration in the assay.
For screening in drug discovery, compounds are routinely dissolved in 100% DMSO and then further diluted to 1% or lower DMSO in the final assay. The effect of DMSO on the ACC/FAS coupled assay was studied. […] At 1% DMSO, the total signal decreased 25% and the S/B was reduced from 15 to 12 with a greater inhibition observed at higher concentrations. Therefore, it may be desirable to keep the final DMSO concentrations in the assay below 0.3%, and not to exceed 1%.
Buffers containing sucrose, glycerol and polyethylene glycol (PEG) were used in the purification of ACC and FAS. In addition, the purified enzymes were stored in buffers containing 20% glycerol to increase long-term stability. In view of this, the effects of glycerol, sucrose and PEG on the enzyme activities were studied with the ACC/FAS coupled SPA.

[1] = target: T1, rat acetyl CoA carboxylase 1 (rACC) (Rattus norvegicus, UniProt P11497); assay: ACC/FAS coupled scintillation proximity assay, reagent titrations (Km, Kact); assay type: biochemical; conditions: other reagents saturating, acetyl CoA 20 μM, 37° C.
T1 construct: from tissue; host or cells: rat liver (rats fasted 36 h, then fed a fat-free carbohydrate diet for 48 h)
Description: The sequence of addition of the solution mixtures into each well of a custom 384-well phospholipid coated FLASHPLATE™ was as follows:
Step 1: Add 35 μl of enzyme mix in assay buffer.
Step 2: Add 5 μl of 3% DMSO or 10× compound in 3% DMSO.
Step 3: Incubate at room temperature for 10 min.
Step 5: Incubate the plate at 37° C. for 2 hours.
Step 6: Count the plate in a TOPCOUNT™ NXT for 2 min/well.

[2] = target: T2, rat fatty acid synthase (rFAS) (Rattus norvegicus, UniProt P12785); assay: ACC/FAS coupled SPA, dependence of FAS activity on NADPH; assay type: biochemical; conditions: FAS cofactor, varied in the ACC/FAS coupled assay
T2 construct: from tissue
T2 sequence (P12785 whole entry): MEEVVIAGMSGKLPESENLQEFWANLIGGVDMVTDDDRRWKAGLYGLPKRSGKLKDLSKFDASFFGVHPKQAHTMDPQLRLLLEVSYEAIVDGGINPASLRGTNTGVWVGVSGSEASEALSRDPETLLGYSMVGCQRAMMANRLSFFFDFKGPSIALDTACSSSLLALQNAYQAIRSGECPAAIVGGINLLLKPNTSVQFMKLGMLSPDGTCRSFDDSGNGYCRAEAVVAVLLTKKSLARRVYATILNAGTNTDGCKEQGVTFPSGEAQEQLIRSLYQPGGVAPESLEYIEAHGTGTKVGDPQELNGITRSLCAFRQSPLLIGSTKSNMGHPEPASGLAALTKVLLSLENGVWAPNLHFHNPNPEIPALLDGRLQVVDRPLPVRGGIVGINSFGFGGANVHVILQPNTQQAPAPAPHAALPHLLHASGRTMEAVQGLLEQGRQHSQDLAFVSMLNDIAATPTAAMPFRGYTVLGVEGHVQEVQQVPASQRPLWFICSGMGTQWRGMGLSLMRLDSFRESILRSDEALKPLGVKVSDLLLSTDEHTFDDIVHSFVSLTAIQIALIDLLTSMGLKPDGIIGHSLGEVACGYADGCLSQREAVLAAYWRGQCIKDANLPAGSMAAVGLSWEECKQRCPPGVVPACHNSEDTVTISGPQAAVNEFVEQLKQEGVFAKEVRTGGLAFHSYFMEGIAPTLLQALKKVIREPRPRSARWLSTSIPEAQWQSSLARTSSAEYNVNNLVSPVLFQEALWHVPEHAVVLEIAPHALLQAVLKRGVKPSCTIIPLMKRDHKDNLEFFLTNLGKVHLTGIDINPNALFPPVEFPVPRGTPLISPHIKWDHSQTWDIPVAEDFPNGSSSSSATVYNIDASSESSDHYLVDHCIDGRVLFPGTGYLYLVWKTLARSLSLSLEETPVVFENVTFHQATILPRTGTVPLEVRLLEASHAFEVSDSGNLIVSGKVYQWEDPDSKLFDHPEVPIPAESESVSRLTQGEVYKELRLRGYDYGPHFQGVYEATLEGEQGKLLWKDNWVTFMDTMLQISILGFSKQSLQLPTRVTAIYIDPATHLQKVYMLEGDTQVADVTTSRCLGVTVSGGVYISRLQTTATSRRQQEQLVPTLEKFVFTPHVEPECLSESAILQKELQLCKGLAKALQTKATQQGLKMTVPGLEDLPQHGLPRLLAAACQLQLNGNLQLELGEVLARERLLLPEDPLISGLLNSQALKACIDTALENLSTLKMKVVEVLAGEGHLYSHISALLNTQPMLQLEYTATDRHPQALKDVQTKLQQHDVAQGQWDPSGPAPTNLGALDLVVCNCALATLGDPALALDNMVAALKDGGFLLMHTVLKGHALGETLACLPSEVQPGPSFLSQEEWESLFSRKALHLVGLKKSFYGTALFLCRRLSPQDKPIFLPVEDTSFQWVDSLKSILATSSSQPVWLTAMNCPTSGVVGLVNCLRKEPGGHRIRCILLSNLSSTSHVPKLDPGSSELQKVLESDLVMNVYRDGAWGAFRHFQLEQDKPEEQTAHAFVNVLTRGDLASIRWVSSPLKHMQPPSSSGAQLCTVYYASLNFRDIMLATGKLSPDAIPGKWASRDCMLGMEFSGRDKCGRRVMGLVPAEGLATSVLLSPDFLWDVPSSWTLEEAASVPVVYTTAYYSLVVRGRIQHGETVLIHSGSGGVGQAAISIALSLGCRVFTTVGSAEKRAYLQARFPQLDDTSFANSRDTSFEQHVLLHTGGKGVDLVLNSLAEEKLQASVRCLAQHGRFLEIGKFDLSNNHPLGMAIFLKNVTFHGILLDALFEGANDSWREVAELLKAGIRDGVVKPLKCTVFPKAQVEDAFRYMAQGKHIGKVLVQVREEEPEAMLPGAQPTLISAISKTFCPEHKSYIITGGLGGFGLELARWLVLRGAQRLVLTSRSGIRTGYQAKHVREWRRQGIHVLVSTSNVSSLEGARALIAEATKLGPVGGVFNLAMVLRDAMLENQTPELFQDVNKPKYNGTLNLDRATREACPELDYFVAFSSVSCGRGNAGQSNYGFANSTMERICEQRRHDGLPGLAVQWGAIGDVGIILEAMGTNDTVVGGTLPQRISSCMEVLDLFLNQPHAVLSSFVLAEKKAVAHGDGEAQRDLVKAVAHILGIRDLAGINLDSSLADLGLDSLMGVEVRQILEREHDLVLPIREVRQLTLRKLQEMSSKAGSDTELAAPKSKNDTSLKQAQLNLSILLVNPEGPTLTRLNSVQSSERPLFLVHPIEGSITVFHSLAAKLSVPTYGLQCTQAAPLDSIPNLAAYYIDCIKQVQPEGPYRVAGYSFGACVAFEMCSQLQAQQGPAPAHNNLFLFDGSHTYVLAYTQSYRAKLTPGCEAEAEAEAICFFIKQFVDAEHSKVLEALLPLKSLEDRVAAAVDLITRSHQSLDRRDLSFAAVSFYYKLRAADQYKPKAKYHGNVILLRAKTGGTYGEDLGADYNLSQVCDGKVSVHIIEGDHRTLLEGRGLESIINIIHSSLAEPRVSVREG
Description: as §1
The Km values for these FAS substrates can be determined independently. In the present study, the dependence of FAS activity on NADPH was determined by varying the cofactor concentration (FIG. 10). […] In this study, NADPH was maintained at saturating concentration of 100 μM.

[3] = tested on: CC(=O)SCCNC(=O)CCNC(=O)[C@H](O)C(C)(C)COP(=O)(O)OP(=O)(O)OC[C@H]1O[C@@H](n2cnc3c(N)ncnc32)[C@H](O)[C@@H]1OP(=O)(O)O; assay: purified protein, by the assay type; conditions: other: from saturation curve, other reagents saturating, 37° C., pH 7.6

Molecule: C[S+](C)[O-] [DMSO]
- effect on the activity of FAS or ACC (ACC and FAS; DMSO concentrations up to 0.3%): no significant effect
- decrease of total signal (ACC and FAS; at 1% DMSO): 25%

Molecule: [Cl-].[Cl-].[Mg+2] [MgCl2]
- Kact (half-maximal saturation value) [1]: 6.3 mM

Molecule: NC(=O)C1=CN([C@@H]2O[C@H](COP(=O)(O)OP(=O)(O)OC[C@H]3O[C@@H](n4cnc5c(N)ncnc54)[C@H](OP(=O)(O)O)[C@@H]3O)[C@@H](O)[C@H]2O)C=CC1 [NADPH]
- Km [2]: 28 µM

Molecule: O=C([O-])O.[Na+] [NaHCO3]
- Km ([1]; from saturation curve): 1700 µM

Molecule: OCC(O)CO [glycerol]
- effect on the enzyme reaction (ACC and FAS): none of these reagents have any significant effect

Molecule: OC[C@H]1O[C@@](CO)(O[C@H]2O[C@H](CO)[C@@H](O)[C@H](O)[C@H]2O)[C@@H](O)[C@@H]1O [sucrose]
- effect on the enzyme reaction (ACC and FAS): none of these reagents have any significant effect

Molecule: rat acetyl CoA carboxylase 1 (rACC) (Rattus norvegicus)
- Km [3]: 47 µM
